{"source": "paper PMC6278341", "about": "(Molecules, 2018)", "key": {"[1]": {"set-up": "method as in PMID 19573609", "settings": "cited from earlier work"}, "[2]": {"assay": "Stability of formulated radioligand in saline containing ethanol", "format": "physicochemical", "settings": "saline containing ethanol (10% v/v), up to 2.5 h; initial 99%"}, "P-gp/BCRP": {"system": "P-gp/BCRP", "assay": "PET imaging in wild type and P-gp/BCRP knock-out mice", "format": "in vivo, mouse", "method": "(§3) In some rats, tariquidar (16 mg/kg, i.v.) was administered at 15 min before radioligand injection. […] For experiments in mice (wild type and P-gp/BCRP knock-out; male; Taconic FVB.129P2-Abcb1a^tm1BorAbcb1b^tm1BorAbcg2^tm1AhsN7; 27 ± 1.1 g), scans were acquired with a microPET Focus 120 camera for a duration of 90 min. […] Monkey (male rhesus macaque, 9.9 kg) experiments were acquired using microPET Focus 220 (Siemens Medical Solutions, Knoxville TN) for a duration of 90 min.\n(§4) Images were reconstructed using Fourier rebinning followed by 2D OSEM with attenuation correction for rats and monkey and without attenuation correction for mice. Scatter correction was applied only for monkey. Volume of interests were delineated manually for rats and mice, and with a co-registered MRI template for monkey. All radioactivity was decay-corrected and expressed as standardized uptake value (SUV) which is radioactivity concentration corrected for subject weight and administered dose. Time activity curves in SUV were obtained and compared between conditions. The PET data analysis was performed using PMOD."}, "D3R [3]": {"system": "D3R", "assay": "PET imaging in monkey", "format": "in vivo, rhesus macaque", "settings": "for AUC 0-90 min higher than at baseline: tariquidar", "method": "as §3, §4"}, "[4]": {"assay": "Tissue stability, rat whole blood, plasma and brain homogenate", "format": "in vitro ADME", "settings": "at least 30 min at 37 °C", "experimental": "(§1) These tissues were stored frozen at −70 °C but thawed on the day of analysis. […] Plasma analysis was performed as reported previously."}, "D3R [5]": {"biological_target": "T1, D3R (Rattus norvegicus, UniProt P19020)", "T1 construct": "from tissue; host or cells: brain of living Sprague-Dawley rats", "T1 sequence (P19020 whole entry)": "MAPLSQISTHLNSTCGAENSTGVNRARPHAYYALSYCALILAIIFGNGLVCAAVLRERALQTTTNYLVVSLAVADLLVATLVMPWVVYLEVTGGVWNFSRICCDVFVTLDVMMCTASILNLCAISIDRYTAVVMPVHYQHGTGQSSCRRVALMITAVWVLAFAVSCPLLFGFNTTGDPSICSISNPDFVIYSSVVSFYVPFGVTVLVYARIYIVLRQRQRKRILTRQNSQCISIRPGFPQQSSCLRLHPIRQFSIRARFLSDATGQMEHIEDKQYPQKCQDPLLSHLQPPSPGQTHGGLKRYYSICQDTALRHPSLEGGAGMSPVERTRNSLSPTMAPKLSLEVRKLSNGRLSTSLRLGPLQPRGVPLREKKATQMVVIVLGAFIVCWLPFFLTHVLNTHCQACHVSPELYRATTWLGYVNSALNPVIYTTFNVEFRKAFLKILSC", "assay": "PET imaging in rats", "format": "in vivo", "settings": "for Peak brain radioactivity concentration: rat PET", "method": "as §3, §4"}, "[6]": {"assay": "Plasma free fraction by ultrafiltration", "format": "in vitro ADME", "settings": "human plasma, n = 3; read-out: Human plasma free fraction (fp)", "experimental": "The mixture was incubated at room temperature for 10 min and then processed as described previously. The ultrafiltration components that contained high radioactivity were allowed to decay to within the optimal range of the γ-counter before they were counted. Quantification of the ultrafiltrates was performed gravimetrically."}, "[7]": {"assay": "Tissue stability, monkey brain homogenate", "format": "in vitro ADME", "settings": "at least 30 min at 37 °C", "experimental": "as §1"}, "[8]": {"assay": "Cell uptake percentage in rat whole blood in vitro", "format": "in vitro ADME", "settings": "in vitro at 37 °C, n = 3", "experimental": "The capillary tubes were then centrifuged, and Hct determined using a StatSpin® CritSpin™ Microhematocrit system (Los Angeles, CA, USA). Aliquots of anticoagulated rat blood (250 µL) were placed in three Eppendorf tubes (1.5 mL). […] Then whole blood (50 µL) was removed from each tube and counted in the γ-counter. The tubes were then centrifuged before removing plasma (50 µL) for γ-counting."}, "[9]": {"assay": "Lipophilicity (logD7.4), 1-octanol/sodium phosphate buffer", "format": "physicochemical", "settings": "room temperature, 1-octanol/sodium phosphate buffer pH 7.4, n = 6", "experimental": "The radioligand in ethanol/saline was placed in sodium phosphate buffer (0.15 M, pH 7.4) for the duration of the experiment followed by the determination of its radiochemical purity to obtain information on its stability in buffer. […] Aliquots (1.0 mL) were distributed to eight borosilicate disposable culture tubes (13 × 100 mm). […] Radioactivities from six tubes were extracted with 1-octanol. Extraction was performed by vortexing the tubes with their content for 1 min. The tubes were centrifuged for 1 min. The organic and the aqueous phases were separated. Each phase was then sampled 50 μL and 200 μL respectively and counted separately in a well-type γ-counter (model 1480 Wizard; Perkin-Elmer) with an electronic window set between 360 and 1800 keV. The remaining two tubes, contained the radioactivity in buffer and served as stability measures for the radioligand. […] The radiochemical composition of the aqueous buffer after extraction with 1-octanol was determined with HPLC on an X-Terra C18 column (10 μm, 7.8 × 300 mm; Waters Corp., Milford, MA, USA) eluted with MeOH:H2O:Et3N (80:20:0.1 v/v/v) at 4.0 mL/min. […] The resulting radiochromatograms provided correction factors for the γ-counter counts to determine parent radioactivity only (corrected radioactivity). […] LogD7.4 was calculated according to the following formula:(1) logD7.4=log(cpm organic phase/corrected cpm aqueous phase)"}, "[10]": {"assay": "Tissue stability, human plasma and brain homogenate", "format": "in vitro ADME", "settings": "at least 30 min at 37 °C", "experimental": "as §1"}, "[11]": {"assay": "Rat ex vivo measurements (radiometabolites and tissue concentrations)", "format": "in vivo", "settings": "for Unmetabolized [^11C]1: 30 min after i.v. injection", "method": "The rats were then immediately sacrificed by decapitation, and their cortices, cerebella, and striata were excised. Each of the brain tissues was placed in MeCN (1 mL) and counted in a γ-counter. […] Water (500 μL) was then added and the tissues were further homogenized and counted in the γ-counter for calculating recoveries into MeCN. The homogenates were centrifuged at 10,000× g for 1 min. […] After separating plasma from blood cells, plasma samples (200 μL) were counted in γ-counter and plasma aliquots (450 μL) were each placed in MeCN (720 μL) along with of carrier 1 (5 μg) for deproteinization. After mixing the samples well, H2O (100 μL) was added. The samples were further mixed well, counted in a γ-counter, and centrifuged at 10,000× g for 1 min. Supernatants were injected onto the radio-HPLC and analyzed under the above conditions. All precipitates were counted in the γ-counter for calculating recoveries in the supernatants that were injected onto the HPLC."}, "5-HT2A": {"biological_target": "5-HT2A (Homo sapiens, UniProt P28223)", "sequence (P28223 whole entry, species assumed)": "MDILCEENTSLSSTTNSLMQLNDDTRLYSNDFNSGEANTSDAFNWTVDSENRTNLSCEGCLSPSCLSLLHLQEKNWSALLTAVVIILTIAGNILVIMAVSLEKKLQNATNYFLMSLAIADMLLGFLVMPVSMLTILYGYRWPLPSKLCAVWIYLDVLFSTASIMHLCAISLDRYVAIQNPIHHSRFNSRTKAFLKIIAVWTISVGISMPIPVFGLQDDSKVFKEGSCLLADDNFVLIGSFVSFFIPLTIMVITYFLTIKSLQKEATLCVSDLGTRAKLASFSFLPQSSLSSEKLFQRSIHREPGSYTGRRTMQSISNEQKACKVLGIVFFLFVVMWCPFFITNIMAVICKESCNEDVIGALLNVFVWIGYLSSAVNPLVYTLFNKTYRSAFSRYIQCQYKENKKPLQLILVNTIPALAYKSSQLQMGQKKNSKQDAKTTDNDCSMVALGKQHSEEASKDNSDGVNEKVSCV", "assay": "Off target binding, 5-HT2A receptor", "from_the_text": "(§2) Off target screening data were obtained through the NIDA Addiction Treatment Discovery Program contract (ADA151001) with Oregon Health & Science University."}, "5-HT1A": {"biological_target": "T2, 5-HT1A (Homo sapiens, UniProt P08908)", "T2 sequence (P08908 1-422)": "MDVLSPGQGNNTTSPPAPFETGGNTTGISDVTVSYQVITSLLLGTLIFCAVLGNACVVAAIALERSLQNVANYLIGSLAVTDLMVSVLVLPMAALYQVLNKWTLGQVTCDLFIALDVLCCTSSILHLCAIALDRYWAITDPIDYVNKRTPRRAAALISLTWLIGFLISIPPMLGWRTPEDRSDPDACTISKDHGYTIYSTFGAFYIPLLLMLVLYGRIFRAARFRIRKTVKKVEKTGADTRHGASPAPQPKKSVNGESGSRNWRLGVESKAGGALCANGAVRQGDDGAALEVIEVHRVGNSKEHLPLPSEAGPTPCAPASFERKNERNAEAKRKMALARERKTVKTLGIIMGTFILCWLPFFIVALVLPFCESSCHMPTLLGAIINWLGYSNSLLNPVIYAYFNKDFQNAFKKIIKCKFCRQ", "assay": "Off target binding, 5-HT1A receptor", "from_the_text": "as §2"}, "D1": {"biological_target": "D1 (Homo sapiens, UniProt P21728)", "sequence (P21728 whole entry)": "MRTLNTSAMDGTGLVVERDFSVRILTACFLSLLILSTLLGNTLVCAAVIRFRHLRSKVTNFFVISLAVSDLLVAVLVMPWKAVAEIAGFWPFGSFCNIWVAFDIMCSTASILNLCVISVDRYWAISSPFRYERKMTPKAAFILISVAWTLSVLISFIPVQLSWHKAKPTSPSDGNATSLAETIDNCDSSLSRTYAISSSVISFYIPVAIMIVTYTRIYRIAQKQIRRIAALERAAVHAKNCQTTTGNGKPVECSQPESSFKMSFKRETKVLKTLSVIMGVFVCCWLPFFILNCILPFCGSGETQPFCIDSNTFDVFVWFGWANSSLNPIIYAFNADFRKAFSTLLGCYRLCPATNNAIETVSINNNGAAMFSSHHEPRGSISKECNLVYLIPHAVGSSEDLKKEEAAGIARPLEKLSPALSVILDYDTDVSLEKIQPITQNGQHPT", "assay": "Off target binding, D1 receptor", "from_the_text": "as §2"}, "D4": {"biological_target": "T3, D4 (Homo sapiens, UniProt P21917)", "T3 sequence (P21917 1-419)": "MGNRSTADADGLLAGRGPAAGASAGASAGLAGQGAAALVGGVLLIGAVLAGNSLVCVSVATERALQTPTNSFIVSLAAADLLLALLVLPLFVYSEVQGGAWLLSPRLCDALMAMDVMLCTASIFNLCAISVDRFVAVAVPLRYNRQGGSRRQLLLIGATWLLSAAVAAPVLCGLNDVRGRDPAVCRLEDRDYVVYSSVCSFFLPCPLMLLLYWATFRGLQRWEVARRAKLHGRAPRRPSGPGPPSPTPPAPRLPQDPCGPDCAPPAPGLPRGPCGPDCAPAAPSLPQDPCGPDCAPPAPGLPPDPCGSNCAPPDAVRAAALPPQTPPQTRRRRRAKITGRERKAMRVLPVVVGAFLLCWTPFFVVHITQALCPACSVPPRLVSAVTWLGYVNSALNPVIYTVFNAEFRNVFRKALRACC", "assay": "Off target binding, D4 receptor", "from_the_text": "as §2"}}, "note": "Values joined by “and” are separate entries in the source; they are usually repeats but may differ in a detail not shown here. Equal values may be shown once."}
{"compound": "O=C(NCCCCN1CCN(c2cccc(Cl)c2O)CC1)c1cc2ccccc2[nH]1", "note": "[Compound 2, N-(4-(4-(3-Chloro-2-hydroxyphenyl)piperazin-1-yl)butyl)-1H-indole-2-carboxamide]", "values": [{"measurement": "melting point", "value": "148 to 149", "unit": "°C"}]}
{"compound": "C[C@@H](N[C@@H]1C[C@H](c2cccc(O[11CH3])c2)N(c2ccc(C(F)(F)F)cc2)C1=O)c1ccccc1", "note": "[[^11C]MePPEP]", "values": [{"measurement": "plasma free fraction (fp)", "setting": "[1]", "value": "0.05 ± 0.01", "unit": "%"}]}
{"compound": "[11CH3]Oc1c(Cl)cccc1N1CCN(CCCCNC(=O)c2cc3ccccc3[nH]2)CC1", "note": "[[^11C]1, [O-methyl-^11C]N-(4-(4-(3-Chloro-2-methoxyphenyl)-piperazin-1-yl)butyl)-1H-indole-2-carboxamide]", "values": [{"measurement": "radiochemical purity after storage (stability)", "setting": "[2]", "value": 96, "unit": "%"}, {"measurement": "peak brain uptake", "setting": "P-gp/BCRP; P-gp/BCRP KO mice", "value": 1.6, "unit": "SUV"}, {"measurement": "efflux transporter substrate behaviour", "setting": "P-gp/BCRP; rodents", "value": "avid brain efflux transporter substrate"}, {"measurement": "peak brain uptake", "setting": "P-gp/BCRP; wild type mice", "value": 0.7, "unit": "SUV"}, {"measurement": "peak whole brain radioactivity uptake", "setting": "D3R [3]; baseline", "value": "2−3 SUV"}, {"measurement": "AUC 0-90 min higher than at baseline", "setting": "D3R [3]; occipital cortex", "value": "~ 20%"}, {"measurement": "AUC 0-90 min higher than at baseline", "setting": "D3R [3]; putamen", "value": 70, "unit": "%"}, {"measurement": "stability", "setting": "[4]; rat brain homogenate", "value": 99.4, "unit": "%"}, {"measurement": "stability", "setting": "[4]; rat plasma", "value": 98.8, "unit": "%"}, {"measurement": "stability", "setting": "[4]; rat whole blood", "value": 100, "unit": "%"}, {"measurement": "Peak brain radioactivity concentration", "setting": "D3R [5]; after tariquidar (16 mg/kg, i.v.)", "value": 3.4, "unit": "SUV"}, {"measurement": "Peak brain radioactivity concentration", "setting": "D3R [5]; baseline", "value": 1.1, "unit": "SUV"}, {"measurement": "change in brain TACs on BP897 challenge", "setting": "D3R [5]; rats, tariquidar 16 mg/kg i.v., BP897 0.5 mg/kg i.v. 10 min before or 15 min after radioligand", "value": "No major changes"}, {"measurement": "change in brain TACs on spiperone challenge", "setting": "D3R [5]; rats, tariquidar 16 mg/kg i.v., spiperone 1.0 mg/kg i.v. 10 min before or 15 min after radioligand", "value": "No obvious changes"}, {"measurement": "fraction unbound at 10 min", "setting": "[6]", "value": "0.0015 ± 0.0001"}, {"measurement": "stability", "setting": "[7]", "value": 100, "unit": "%"}, {"measurement": "cellular uptake in rat whole blood", "setting": "[8]", "value": "55.2 ± 1.1", "unit": "%"}, {"measurement": "logD", "setting": "[9]", "value": "3.33 ± 0.13"}, {"measurement": "stability", "setting": "[10]; human brain homogenate", "value": 99.8, "unit": "%"}, {"measurement": "stability", "setting": "[10]; human plasma", "value": 99.3, "unit": "%"}, {"measurement": "increase of rat brain tissue concentration, tariquidar-treated vs untreated", "setting": "[11]; ex vivo, 30 min, tariquidar 16 mg/kg i.v.", "value": "2.4–2.6 fold"}, {"measurement": "Unmetabolized [^11C]1", "setting": "[11]; rat cerebellum, baseline", "value": 98.8, "unit": "%"}, {"measurement": "[^11C]1 Concentration", "setting": "[11]; rat cerebellum, baseline, ex vivo 30 min", "value": 1.20, "unit": "SUV"}, {"measurement": "Unmetabolized [^11C]1", "setting": "[11]; rat cerebellum, tariquidar-treated", "value": 98.8, "unit": "%"}, {"measurement": "[^11C]1 Concentration", "setting": "[11]; rat cerebellum, tariquidar-treated, ex vivo 30 min", "value": 2.84, "unit": "SUV"}, {"measurement": "Unmetabolized [^11C]1", "setting": "[11]; rat cortex, baseline", "value": 99.0, "unit": "%"}, {"measurement": "[^11C]1 Concentration", "setting": "[11]; rat cortex, baseline, ex vivo 30 min", "value": 1.33, "unit": "SUV"}, {"measurement": "Unmetabolized [^11C]1", "setting": "[11]; rat cortex, tariquidar-treated", "value": 98.7, "unit": "%"}, {"measurement": "[^11C]1 Concentration", "setting": "[11]; rat cortex, tariquidar-treated, ex vivo 30 min", "value": 3.49, "unit": "SUV"}, {"measurement": "Unmetabolized [^11C]1", "setting": "[11]; rat plasma, baseline", "value": "76% and 76.1%"}, {"measurement": "[^11C]1 Concentration", "setting": "[11]; rat plasma, baseline, ex vivo 30 min after i.v. injection", "value": 0.06, "unit": "SUV"}, {"measurement": "[^11C]1 Concentration", "setting": "[11]; rat plasma, tariquidar-treated (16 mg/kg, i.v.), ex vivo 30 min", "value": 0.04, "unit": "SUV"}, {"measurement": "Unmetabolized [^11C]1", "setting": "[11]; rat plasma, tariquidar-treated", "value": "69% and 68.9%"}, {"measurement": "Unmetabolized [^11C]1", "setting": "[11]; rat striatum, baseline", "value": 99.3, "unit": "%"}, {"measurement": "[^11C]1 Concentration", "setting": "[11]; rat striatum, baseline, ex vivo 30 min", "value": 1.36, "unit": "SUV"}, {"measurement": "Unmetabolized [^11C]1", "setting": "[11]; rat striatum, tariquidar-treated", "value": 98.8, "unit": "%"}, {"measurement": "[^11C]1 Concentration", "setting": "[11]; rat striatum, tariquidar-treated, ex vivo 30 min", "value": 3.53, "unit": "SUV"}, {"measurement": "[^11C]1 Concentration", "setting": "[11]; rat whole blood, baseline, ex vivo 30 min", "value": 0.09, "unit": "SUV"}, {"measurement": "[^11C]1 Concentration", "setting": "[11]; rat whole blood, tariquidar-treated, ex vivo 30 min", "value": 0.07, "unit": "SUV"}]}
{"compound": "COc1c(Cl)cccc1N1CCN(CCCCNC(=O)c2cc3ccccc3[nH]2)CC1", "note": "[Compound 1, N-(4-(4-(3-chloro-2-methoxyphenyl)piperazin-1-yl)butyl)-1H-indole-2-carboxamide]", "values": [{"measurement": "Ki", "setting": "5-HT2A", "value": "19.7 ± 1.4", "unit": "nM"}, {"measurement": "Ki", "setting": "5-HT1A", "value": "92.3 ± 8", "unit": "nM"}, {"measurement": "Ki", "setting": "D1", "value": "2290 ± 340", "unit": "nM"}, {"measurement": "Ki", "setting": "D4", "value": "300 ± 100", "unit": "nM"}]}
